Counter-ions that a name gives are not always drawn.
Assays:
[1] = test system: SD rat; assay: 32P-phosphate oral loading test using SD rat (phosphorus absorption inhibitory effect); assay type: in vivo; conditions: Rattus norvegicus, 0.5 h, SD male rats, plasma radioactivity 30 minutes after 32P-phosphate solution, vs control group, read-out: Rate of inhibition of phosphate absorption; for inhibition in vivo at 3 mg/kg: oral dose 3 mg/kg
Procedure: Phosphorus Absorption Inhibitory Effect of the Compound of the Present Invention in ^32P-Phosphate Oral Loading Test Using SD Rat
8-week-old SD male rats (Japan SLC, Inc.) were used as laboratory animals. Each test compound was suspended or dissolved at a concentration of 0.2 mg/mL or 0.6 mg/mL in Japanese Pharmacopoeia water for injection (manufactured by Hikari Pharmaceutical Co., Ltd.) and orally administered to each rat at a dose of 5 ml/kg body weight. Japanese Pharmacopoeia water for injection was administered at the same dose as above to a control group. 5 minutes after the administration of the test compound or water for injection, a phosphate solution (1.3 mM NaH2PO4) containing 32P-phosphate (PerkinElmer Inc.) was administered thereto at a dose of 5 ml/kg. 30 minutes after the administration of the phosphate solution, blood was collected from the tail vein, and the blood sample was immediately mixed with EDTA-2K (manufactured by Dojindo Laboratories). Then, the mixture was centrifuged at 3000 rpm at 4° C. for 10 minutes to recover plasma.
The radioactivity in 100 μL of the plasma was measured using a liquid scintillation counter and used as a phosphate absorption count. The radioactivity in the plasma of the control group was used as a control, and the rate of inhibition of phosphate absorption was determined according to the following expression: Rate of inhibition of phosphate absorption (%)=(1−Phosphate absorption count of the test compound administration group/Phosphate absorption count of the control group)×100 (2) Results

[2] = target: T1, human NHE3 (Homo sapiens, UniProt P48764); assay: NHE3 inhibition test (recovery of intracellular pH in cell line stably expressing human NHE3); assay type: cell-based; conditions: OK cells deficient in endogenous NHE stably expressing human NHE3; BCECF fluorescence, initial rate of pH recovery; read-out: human NHE3 inhibitory activity IC50
T1 sequence (P48764 26-834): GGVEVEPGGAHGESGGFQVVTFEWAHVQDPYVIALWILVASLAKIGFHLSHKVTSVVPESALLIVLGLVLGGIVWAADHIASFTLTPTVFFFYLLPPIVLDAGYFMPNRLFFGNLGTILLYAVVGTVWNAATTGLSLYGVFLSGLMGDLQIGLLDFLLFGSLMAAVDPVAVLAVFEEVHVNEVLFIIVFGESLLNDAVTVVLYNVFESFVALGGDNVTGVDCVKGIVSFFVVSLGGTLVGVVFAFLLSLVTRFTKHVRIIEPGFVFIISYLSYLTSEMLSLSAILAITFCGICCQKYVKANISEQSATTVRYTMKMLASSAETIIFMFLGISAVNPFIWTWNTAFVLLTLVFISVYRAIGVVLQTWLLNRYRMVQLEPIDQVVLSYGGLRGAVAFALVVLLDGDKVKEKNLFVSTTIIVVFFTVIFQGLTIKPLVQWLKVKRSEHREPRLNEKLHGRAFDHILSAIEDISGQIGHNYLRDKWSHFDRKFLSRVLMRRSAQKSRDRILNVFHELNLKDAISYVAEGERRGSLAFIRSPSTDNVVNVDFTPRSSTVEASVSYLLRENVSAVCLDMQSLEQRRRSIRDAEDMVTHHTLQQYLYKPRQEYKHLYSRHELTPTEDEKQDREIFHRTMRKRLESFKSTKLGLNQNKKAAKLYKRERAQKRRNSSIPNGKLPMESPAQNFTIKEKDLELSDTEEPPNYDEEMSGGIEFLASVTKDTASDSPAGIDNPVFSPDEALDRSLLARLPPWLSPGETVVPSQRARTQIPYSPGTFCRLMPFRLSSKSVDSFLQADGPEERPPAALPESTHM
In short: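 Opossum kidney cells lacking endogenous NHE, stably expressing human NHE3, loaded with BCECF-AM and acid-loaded by NH4Cl washout. Compound in Na-free buffer, then Na-containing buffer (pH 7.4) added; initial pH-recovery rate by BCECF fluorescence, IC50 versus no-compound recovery.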

| IC50 [2] | SMILES | inhibition in vivo at 1 mg/kg ([1]; oral dose 1 mg/kg) | inhibition in vivo at 3 mg/kg [1] |
| --- | --- | --- | --- |
| 5.7 nM | CN1Cc2c(Cl)cc(Cl)cc2[C@H](c2cccc(-c3cn(CCOCCOCCOCCNC(=O)NCCCCNC(=O)NCCOCCOCCOCCn4cc(-c5cccc([C@@H]6CN(C)Cc7c(Cl)cc(Cl)cc76)c5)nn4)nn3)c2)C1 [Example 6-2, 1,1′-Butane-1,4-diylbis {3-[2-(2-{2-[2-(4-{3-[(4S)-6,8-dichloro-2-methyl-1,2,3,4-tetrahydroisoquinolin-4-yl]phenyl}-1H-1,2,3-triazol-1-yl)ethoxy]ethoxy}ethoxy)ethyl]urea}hydrochloride] | 47% | – |
| 97.6 nM | CN1Cc2c(Cl)cc(Cl)cc2[C@H](c2cccc(-c3cn(CCOCCOCCNC(=O)COCC(=O)NCCOCCOCCn4cc(-c5cccc([C@@H]6CN(C)Cc7c(Cl)cc(Cl)cc76)c5)nn4)nn3)c2)C1 [Example 6-4, 1-(4-{3-[(4S)-6,8-Dichloro-2-methyl-1,2,3,4-tetrahydroisoquinolin-4-yl]phenyl}-1H-1,2,3-triazol-1-yl)-N-(2-{2-[2-(4-{3-[(4S)-6,8-dichloro-2-methyl-1,2,3,4-tetrahydroisoquinolin-4-yl]phenyl}-1H-1,2,3-triazol-1-yl)ethoxy]ethoxy}ethyl)-10-oxo-3,6,12-trioxa-9-azatetradecan-14-amide hydrochloride] | – | -5% |
| 9.5 nM | CN1Cc2c(Cl)cc(Cl)cc2[C@H](c2cccc(-c3cn(CCOCCOCCNC(=O)Nc4ccc(NC(=O)NCCOCCOCCn5cc(-c6cccc([C@@H]7CN(C)Cc8c(Cl)cc(Cl)cc87)c6)nn5)cc4)nn3)c2)C1 [Example 6-5, 1,1′-Benzene-1,4-diylbis[3-(2-{2-[2-(4-{3-[(4S)-6,8-dichloro-2-methyl-1,2,3,4-tetrahydroisoquinolin-4-yl]phenyl}-1H-1,2,3-triazol-1-yl)ethoxy]ethoxy}ethyl)urea]hydrochloride] | – | 46% |
| 0.8 nM | CN1Cc2c(Cl)cc(Cl)cc2[C@H](c2cccc(-c3cn(CCOCCOCCOCCNC(=O)[C@@H](O)[C@H](O)[C@H](O)[C@@H](O)C(=O)NCCOCCOCCOCCn4cc(-c5cccc([C@@H]6CN(C)Cc7c(Cl)cc(Cl)cc76)c5)nn4)nn3)c2)C1 [Example 6-8, (2R,3S,4R,5S)—N,N′-Bis[2-(2-{2-[2-(4-{3-[(4S)-6,8-dichloro-2-methyl-1,2,3,4-tetrahydroisoquinolin-4-yl]phenyl}-1H-1,2,3-triazol-1-yl)ethoxy]ethoxy}ethoxy)ethyl]-2,3,4,5-tetrahydroxyhexanediamide hydrochloride] | – | 34% |
| 4.1 nM | CN1Cc2c(Cl)cc(Cl)cc2[C@H](c2cccc(-c3cn(CCOCCOCCOCCOCCNC(=O)[C@H](O)[C@@H](O)C(=O)NCCOCCOCCOCCOCCn4cc(-c5cccc([C@@H]6CN(C)Cc7c(Cl)cc(Cl)cc76)c5)nn4)nn3)c2)C1 [Example 6-9, (2R,3R)—N,N′-Bis[14-(4-{3-[(4S)-6,8-dichloro-2-methyl-1,2,3,4-tetrahydroisoquinolin-4-yl]phenyl}-1H-1,2,3-triazol-1-yl)-3,6,9,12-tetraoxatetradec-1-yl]-2,3-dihydroxybutanediamide hydrochloride] | – | 53% |
| 6.2 nM | CN1Cc2c(Cl)cc(Cl)cc2[C@H](c2cccc(-c3cn(CCOCCOCCOCCOCCOCCNC(=O)[C@H](O)[C@@H](O)C(=O)NCCOCCOCCOCCOCCOCCn4cc(-c5cccc([C@@H]6CN(C)Cc7c(Cl)cc(Cl)cc76)c5)nn4)nn3)c2)C1 [Example 6-10, (2R,3R)—N,N′-Bis[17-(4-{3-[(4S)-6,8-dichloro-2-methyl-1,2,3,4-tetrahydroisoquinolin-4-yl]phenyl}-1H-1,2,3-triazol-1-yl)-3,6,9,12,15-pentaoxaheptadec-1-yl]-2,3-dihydroxybutanediamide hydrochloride] | – | 38% |
| 1.4 nM | CN1Cc2c(Cl)cc(Cl)cc2[C@H](c2cccc(-c3cn(CCOCCOCCOCCOCCNC(=O)[C@@H](O)[C@H](O)[C@H](O)[C@@H](O)C(=O)NCCOCCOCCOCCOCCn4cc(-c5cccc([C@@H]6CN(C)Cc7c(Cl)cc(Cl)cc76)c5)nn4)nn3)c2)C1 [Example 6-11, (2R,3S,4R,5S)—N,N′-Bis[14-(4-{3-[(4S)-6,8-dichloro-2-methyl-1,2,3,4-tetrahydroisoquinolin-4-yl]phenyl}-1H-1,2,3-triazol-1-yl)-3,6,9,12-tetraoxatetradec-1-yl]-2,3,4,5-tetrahydroxyhexanediamide hydrochloride] | – | 33% |
| 2.3 nM | CN1Cc2c(Cl)cc(Cl)cc2[C@@H](c2cccc(-c3cn(CCOCCOCCOCCOCCOCCNC(=O)[C@H](O)[C@@H](O)[C@@H](O)[C@H](O)C(=O)NCCOCCOCCOCCOCCOCCn4cc(-c5cccc([C@@H]6CN(C)Cc7c(Cl)cc(Cl)cc76)c5)nn4)nn3)c2)C1 [Example 6-12, (2R,3S,4R,5S)—N-[17-(4-{3-[(4R)-6,8-Dichloro-2-methyl-1,2,3,4-tetrahydroisoquinolin-4-yl]phenyl}-1H-1,2,3-triazol-1-yl)-3,6,9,12,15-pentaoxaheptadec-1-yl]-N′-[17-(4-{3-[(4S)-6,8-dichloro-2-methyl-1,2,3,4-tetrahydroisoquinolin-4-yl]phenyl}-1H-1,2,3-triazol-1-yl)-3,6,9,12,15-pentaoxaheptadec-1-yl]2,3,4,5-tetrahydroxyhexanediamide hydrochloride] | – | 37% |
| 9.4 nM | CN1Cc2c(Cl)cc(Cl)cc2[C@H](c2cccc(-c3cc(NCCOCCOCCNC(=O)NCCCCNC(=O)NCCOCCOCCNc4cc(-c5cccc([C@@H]6CN(C)Cc7c(Cl)cc(Cl)cc76)c5)ncn4)ncn3)c2)C1 [Example 7-2, 1,1′-Butane-1,4-diylbis {3-[2-(2-{2-[(6-{3-[(4S)-6,8-dichloro-2-methyl-1,2,3,4-tetrahydroisoquinolin-4-yl]phenyl}pyrimidin-4-yl)amino]ethoxy}ethoxy)ethyl]urea} tetrahydrochloride] | – | 23% |
| 8.4 nM | CN1Cc2c(Cl)cc(Cl)cc2[C@H](c2cccc(-c3ccnc(NCCOCCOCCNC(=O)NCCCCNC(=O)NCCOCCOCCNc4cc(-c5cccc([C@@H]6CN(C)Cc7c(Cl)cc(Cl)cc76)c5)ccn4)c3)c2)C1 [Example 7-4, 1,1′-Butane-1,4-diylbis {3-[2-(2-{2-[(4-{3-[(4S)-6,8-dichloro-2-methyl-1,2,3,4-tetrahydroisoquinolin-4-yl]phenyl}pyridin-2-yl)amino]ethoxy}ethoxy)ethyl]urea}pentahydrochloride] | – | 27% |
| 4.5 nM | CN1Cc2c(Cl)cc(Cl)cc2[C@H](c2cccc(-c3cnn(CCOCCOCCNC(=O)NCCCCNC(=O)NCCOCCOCCn4cc(-c5cccc([C@@H]6CN(C)Cc7c(Cl)cc(Cl)cc76)c5)cn4)c3)c2)C1 [Example 7-5, 1,1′-Butane-1,4-diylbis[3-(2-{2-[2-(4-{3-[(4S)-6,8-dichloro-2-methyl-1,2,3,4-tetrahydroisoquinolin-4-yl]phenyl}-1H-pyrazol-1-yl)ethoxy]ethoxy}ethyl)urea]diformate] | – | 23% |
| 10 nM | CN1Cc2c(Cl)cc(Cl)cc2[C@H](c2cccc(-c3cc(NCCOCCOCCNC(=O)NCCCCNC(=O)NCCOCCOCCNc4cnnc(-c5cccc([C@@H]6CN(C)Cc7c(Cl)cc(Cl)cc76)c5)c4)cnn3)c2)C1 [Example 7-6, 1,1′-Butane-1,4-diylbis {3-[2-(2-{2-[(6-{3-[(4S)-6,8-dichloro-2-methyl-1,2,3,4-tetrahydroisoquinolin-4-yl]phenyl}pyridazin-4-yl)amino]ethoxy}ethoxy)ethyl]urea}pentahydrochloride] | – | 24% |

— patent US9932331B2, “Phenyl tetrahydroisoquinoline compound substituted with heteroaryl” (TAISHO PHARMACEUTICAL CO., LTD, priority 2014, dated 2018)
